# From patent publication US7700272B2, “Polynucleotides encoding acetylcholine-gated chloride channel subunits of Caenorhabditis elegans” (priority 2004, dated 2010)
# Several values for one entry are separate records, joined by “and”; a condition that tells them apart may be missing. Equal entries are not always repeated. Entries after “also recorded” stand apart in the source; their conditions may differ. Where two headings read alike, the source gives them in different places.
# Key:
# [1] = biological target: rat α9nAChRs (Rattus norvegicus, UniProt P43144); details: cited from earlier work
# [2] = biological target: ACC-2D6.3 channel (Caenorhabditis elegans, UniProt Q18812); test: cell-based
# Description: (§1) For capped cRNA synthesis, cDNAs were subcloned into the pT7N vector, which contains a T7 RNA polymerase promoter, the 5′- and 3′-UTR of Xenopus laevis beta-globin, and an encoded poly(A+) tail (Cary R B, Klymkowsky M W, Evans R M, Domingo A, Dent J A, Backhus L E (1994) Vimentin's tail interacts with actin-containing structures in vivo. J Cell Sci 107:1609-1622.). The pT7NcDNA constructs were linearized with Sal I (ACC-2D6.3) or BamHI (ACC-1G6.4) and transcribed using the MEGAscript Kit (Ambion, Austin, Tex., USA). Synthesized cRNAs were recovered by LiCl precipitation and resuspended in nuclease-free H2O at final concentration of 1 microgram/ml.
# (§2) Oocytes were harvested from mature female Xenopus leavis according to standard procedures (Goldin, A. L. (1992) Maintenance of Xenopus laevis and oocyte injection. Methods Enzymol. 207: 266-79.). To remove inner ovarian epithelium, thecal cell layer, and follicular cells, the ovarian pieces were placed in OR-2 solution: 82.5 mM NaCl, 2 mM KCl, 1 mM MgCl2, and 5 mM Hepes (pH 7.5) containing 1 mg/ml type I collagenase (Sigma, St Louis Mo., USA) either for 3 hours at 20° C. with gentle agitation or for 1 hour followed by manual defolliculization. The stage VI defolliculated oocytes were placed in ND96 solution (96 mM NaCl, 2 mM KCl, 1.8 mM CaCl2, 1 mM MgCl2, and 5 mM Hepes, pH7.5). Oocytes were injected with 40 nl of cRNA using the Nanoject system (Drummond Scientific, Broomall, Pa., USA). Injected oocytes were incubated at 20° C. in ND96 supplemented with […] gentamycin and […] pyruvate. Oocytes were allowed to express cRNA for two days before measurements were taken.
# (§3) Two-electrode voltage-clamp recordings were performed using the AxoClamp 2B amplifier (Axon Instruments, Foster City, Calif., USA). Microelectrodes were pulled from borosilicate glass capillaries (Word Precision Instruments, Inc., Sarasota, Fla., USA) on the P-97 micropipette puller Sutter Instruments, Novato, Calif., USA). […] Each oocyte was placed in RC-12 recording chamber (Warner Instrument Inc., Hamden, Conn., USA) or a Maltese cross chamber (ALA Scientific Instruments, Westbury, N.Y., USA) and clamped at −80 mV. Data were acquired at 1 kHz using Clampex software (Axon Instruments, Foster City, Calif., USA).
# (§4) Dose-response curves for agonists were generated by their applying the agonist in increasing concentrations followed by 3-9 min washes at each concentration. To determine EC50 and Hill coefficient agonist dose response curves were fit using the following equation: f(I)=(Imax[I]^n/(EC50^n+[I]^n))+Imin, where I is the normalized response to agonist at certain concentration, Imax is the maximal response elicited by a saturating concentration of agonist, EC50 is the concentration of agonist inducing half-maximal response, n is the Hill coefficient, and Imin is the normalized response at lowest agonist concentration.
# (§5) The mean and standard error of the mean of peak current responses of at least three oocytes per experiment are represented.
# (§6) All drugs were obtained from Sigma-Aldrich (St. Louis, Mo. USA) except imidicloprid (IMI) which was provided by Crompton Co. (Guelph, ON, Canada). Drugs were dissolved in ND96 except IMI, which was made as a stock solution in DMSO and diluted to working concentrations in ND96. If required, drug solutions were adjusted to pH 7.5 with either NaOH or HCl. Fresh solutions were prepared before measurements and stored at 4° C. for 1-5 days.
# [3] = tested on: ACC-2D6.3 channel; test: cell-based
# Description: as §1, §2, §3, §4, §5, §6
# [4] = biological target: T1, ACC-1G6.4 channel (Caenorhabditis elegans, UniProt Q21005); test: Two-electrode voltage-clamp of Xenopus oocytes expressing ACC-1G6.4 homomeric channel; format: cell-based, C. elegans
# T1 construct: Agonist: percentage of maximal acetylcholine-elicited response; other: compound at 0.1 mM; Agonist: percentage of maximal acetylcholine-elicited response; other: compound at 0.2 mM; other: compound at 0.4 mM; other: compound at 0.8 mM; Agonist: percentage of maxim
# Description: as §1, §2, §3, §4, §5, §6
# [5] = biological target: Aplysia receptors mediating the slow desensitizing chloride-dependent response; details: cited from earlier work; for EC50: read-out: EC50 (range)
# [6] = tested on: ACC-2D6.3+ACC-3D10.5; format: cell-based, C. elegans; details: 1 mM
# Protocol: (§8) Oocytes were harvested from mature female Xenopus leavis according to standard procedures (Goldin, A. L. (1992) Maintenance of Xenopus laevis and oocyte injection. Methods Enzymol. 207: 266-79.). To remove inner ovarian epithelium, thecal cell layer, and follicular cells, the ovarian pieces were placed in OR-2 solution: 82.5 mM NaCl, 2 mM KCl, 1 mM MgCl2, and 5 mM Hepes (pH 7.5) containing 1 mg/ml type I collagenase (Sigma, St Louis Mo., USA) either for 3 hours at 20° C. with gentle agitation or for 1 hour followed by manual defolliculization. The stage VI defolliculated oocytes were placed in ND96 solution (96 mM NaCl, 2 mM KCl, 1.8 mM CaCl2, 1 mM MgCl2, and 5 mM Hepes, pH7.5). Oocytes were injected with 40 nl of cRNA using the Nanoject system (Drummond Scientific, Broomall, Pa., USA). Injected oocytes were incubated at 20° C. in ND96 supplemented with 100 mg/ml gentamycin and 550 mg/ml pyruvate. Oocytes were allowed to express cRNA for two days before measurements were taken.
# [7] = biological target: ACC-2 Y100L (Caenorhabditis elegans, UniProt Q18812, Y100L); test: Voltage-clamp of Xenopus oocytes expressing ACC-2 mutant Y100L; format: cell-based, C. elegans
# Protocol: as §3, §4
# (§7) These mutations are substitutions of Leu for Tyr at amino acid 100 (Y100L) and Tyr for Phe at amino acid 160 (F160Y).
# [8] = tested on: ACC-4E9.9; test: Two-electrode voltage-clamp of Xenopus oocytes injected with ACC-4E9.9 cRNA; format: cell-based, C. elegans; details: 1 mM
# Protocol: as §8
# [9] = tested on: ACC-2D6.3+ACC-4E9.9; format: cell-based, C. elegans; details: 1 mM
# Protocol: as §8
# [10] = biological target: ACC-2 F160Y (Caenorhabditis elegans, UniProt Q18812, F160Y); test: Voltage-clamp of Xenopus oocytes expressing ACC-2 mutant F160Y; format: cell-based, C. elegans
# Protocol: as §3, §4, §7
# [11] = tested on: ACC-3D10.5; test: Two-electrode voltage-clamp of Xenopus oocytes injected with ACC-3D10.5 cRNA; format: cell-based, C. elegans; details: 1 mM
# Protocol: as §8
# [12] = tested on: T2, ACC-1G6.4 channel; test: Two-electrode voltage-clamp of Xenopus oocytes expressing ACC-1G6.4 homomeric channel; format: cell-based, C. elegans; details: one range given for both channels
# T2 construct: rows headed: evoked current as % of the maximal ACh-elicited current; other: text; maximal magnitude of ACh-elicited inward current; other: −80 mV
# Description: as §1, §2, §3, §4, §5, §6
# [13] = read-out: Agonist: percentage of maximal acetylcholine-elicited response
# [14] = EC50 (agonist), oocytes clamped at −80 mV, wild type
# [15] = concentration tested in brackets where printed
# ACC-2D6.3 channel (Caenorhabditis elegans, UniProt Q18812), sequence (Q18812 whole entry, looked up): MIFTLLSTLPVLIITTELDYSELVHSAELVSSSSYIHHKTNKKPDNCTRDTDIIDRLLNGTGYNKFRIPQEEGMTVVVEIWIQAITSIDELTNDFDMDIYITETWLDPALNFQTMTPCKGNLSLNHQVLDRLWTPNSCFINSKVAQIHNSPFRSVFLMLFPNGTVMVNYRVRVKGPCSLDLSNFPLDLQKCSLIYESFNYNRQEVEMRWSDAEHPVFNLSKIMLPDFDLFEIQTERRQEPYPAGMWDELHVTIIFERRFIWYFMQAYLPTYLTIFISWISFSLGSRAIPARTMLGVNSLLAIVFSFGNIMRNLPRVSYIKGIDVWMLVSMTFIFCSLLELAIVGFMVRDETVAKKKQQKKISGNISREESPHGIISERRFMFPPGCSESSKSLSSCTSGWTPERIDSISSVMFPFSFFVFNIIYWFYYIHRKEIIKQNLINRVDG
# T1 sequence (Q21005 whole entry, looked up): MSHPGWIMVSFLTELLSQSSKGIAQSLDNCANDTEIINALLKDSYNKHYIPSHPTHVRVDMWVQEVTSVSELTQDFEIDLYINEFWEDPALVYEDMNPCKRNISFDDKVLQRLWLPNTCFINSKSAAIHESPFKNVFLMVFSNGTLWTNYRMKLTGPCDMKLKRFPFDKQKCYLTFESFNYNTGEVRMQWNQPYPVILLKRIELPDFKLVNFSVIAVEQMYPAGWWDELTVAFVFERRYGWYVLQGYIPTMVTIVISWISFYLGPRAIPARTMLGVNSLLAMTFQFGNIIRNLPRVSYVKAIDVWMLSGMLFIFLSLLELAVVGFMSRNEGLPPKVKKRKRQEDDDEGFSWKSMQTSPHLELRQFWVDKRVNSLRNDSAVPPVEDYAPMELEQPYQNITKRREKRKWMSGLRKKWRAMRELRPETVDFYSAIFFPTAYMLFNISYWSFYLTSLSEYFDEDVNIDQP
# rat α9nAChRs, sequence (P43144 26-479): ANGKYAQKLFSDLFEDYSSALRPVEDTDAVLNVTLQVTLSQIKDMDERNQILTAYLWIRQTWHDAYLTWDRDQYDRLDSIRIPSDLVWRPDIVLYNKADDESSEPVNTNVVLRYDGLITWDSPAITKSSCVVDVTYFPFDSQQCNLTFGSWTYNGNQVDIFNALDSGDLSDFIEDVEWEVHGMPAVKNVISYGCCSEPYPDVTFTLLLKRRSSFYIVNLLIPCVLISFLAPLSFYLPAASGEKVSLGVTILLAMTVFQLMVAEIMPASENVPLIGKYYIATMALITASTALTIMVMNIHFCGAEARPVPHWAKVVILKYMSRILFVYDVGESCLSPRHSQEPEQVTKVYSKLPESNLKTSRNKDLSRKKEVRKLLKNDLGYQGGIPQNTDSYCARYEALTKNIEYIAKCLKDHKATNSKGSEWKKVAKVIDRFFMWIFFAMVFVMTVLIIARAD
# ACC-2 F160Y, sequence (Q18812 whole entry F160Y, looked up): as the sequence (Q18812 whole entry, looked up) above, with F160Y counted along it
# ACC-2 Y100L, sequence (Q18812 whole entry Y100L, looked up): as the sequence (Q18812 whole entry, looked up) above, with Y100L counted along it
structure (smiles),measurement,setting,value
CN1CCCC1c1cccnc1 (stereo not shown) [nicotine],agonist action (in words),[1],no agonistic activity
same,antagonist action (in words),[1],Antagonist
same,EC50,[2],~1000 µM
same,antagonist action (in words),[2],no antagonistic
same,concentrations at which channels responded,[3],800 to 1000 µM
same,EC50,[4],~1000 µM
same,IC50,[4],~100 µM
same,agonist action (in words),[4],weak agonists and/or antagonists; also recorded: very weak agonist; also recorded: poorly; also recorded: Weak partial agonist
same,antagonist action (in words),[4],partial antagonist
same,activation at 100 µM,[4]; [13],5.2 ± 1.2%
same,activation at 1000 µM,[4]; [13],12 ± 2.7%
same,EC50,"[5]; Table 4, order of magnitude",~100 µM
same,agonist action (in words),[5],Weak partial agonist
"CC(=O)OCC[N+](C)(C)C [ACh, acetylcholine]",current response,[6],50-60 nA
same,EC50,[7],351 ± 33 µM
same,response (in words),[8],no response
same,response (in words),[9],did not respond
same,estimated Hill coefficient (agonist),[2],2.64±0.08
same,EC50,[2]; [14],9.54 ± 0.11 µM
same,EC50,"[2]; EC50, Table 4",9.5 µM
same,EC50,[10],44 ± 1.8 µM
same,current response,[11],10-30 nA
COC(=O)C1=CCCN(C)C1 [arecoline],evoked current as % of the maximal ACh-elicited current,[2],82-89%
same,EC50,[2]; [14],754 ± 22 µM
same,estimated Hill coefficient (agonist),[2]; agonist dose-response,2.66±0.23
same,antagonist action (in words),[2]; [15],did not inhibit the ACh response
same,evoked current as % of the maximal ACh-elicited current,[12],82-89%
same,estimated Hill coefficient (agonist),[4]; agonist dose-response,1.59±0.09
same,agonist action (in words),[4]; [15],agonists; also recorded: strong agonist; also recorded: strongly
same,antagonist action (in words),[4]; [15],did not inhibit the ACh response
same,EC50,"[4]; oocytes clamped at −80 mV, read-out: EC50 (agonist)",4.7 ± 0.11 µM
O=c1cccc2n1C[C@@H]1CNC[C@H]2C1 [cytisine],IC50,[1],43.1 µM
same,agonist action (in words),[1],no agonistic activity
same,antagonist action (in words),[1],Antagonist
same,Agonist: percentage of maximal acetylcholine-elicited response,[2],15.5 ± 2.9%
same,EC50,[2],~1000 µM
same,IC50,[2],~100 µM
same,concentrations at which channels responded,[3],800 to 1000 µM
same,Antagonist: percentage decrease in a response to acetylcholine,[4],66.8 ± 3% and 95 ± 1.4%
same,IC50,[4],~10 µM
same,agonist action (in words),[4],weak agonists and/or antagonists; also recorded: no agonistic activity
same,antagonist action (in words),[4],only as an antagonist
same,activation at 800 µM,[4]; [13],0%
same,agonist action (in words),[5],Weak partial agonist
same,estimated relative effectiveness versus acetylcholine,[5],~0.14
same,EC50,[5],~100 µM
